# Data: patent publication US20250092039A1, “GLUTARIMIDE-CONTAINING PAN-KRAS-MUTANT DEGRADER COMPOUNDS AND USES THEREOF” (Tiger Biotherapeutics Inc., priority 2022, published 2025)
# How the values were obtained:
# KRAS-G12V/RAF1 = KRAS-G12V/RAF1 (Homo sapiens (Human), UniProt P01116, G12V); assay: KRAS/RAF1 binding inhibition assay (AlphaScreen)
# Method: Binding affinity against GTP-bound KRAS of the compounds disclosed herein was measured by monitoring the interaction of guanosine 5′-[β,γ-imido]triphosphate-bound (GppNHp-bound) KRAS with the RBD domain of RAF1 in the presence of the test compound. […] The test compounds in 2% DMSO (final concentration) at various concentrations were then added to the reaction mixture and incubated for 60 minutes at 4° C.
# Raw ALphaScreen data were converted to a percentage of inhibition (relative to DMSO) using the following equations: • a) For a given test compound concentration X: […]
# The IC50 values were determined by nonlinear regression of plots of [inhibitor] vs. percentage of inhibition with variable slope, analyzed using GraphPad Prism (Version 9).
# KRAS G12V = KRAS G12V (Homo sapiens (Human), UniProt P01116, G12V); assay: KRAS G12V degradation in SW620 cells (Western blot, DC50); type: cell-based; conditions: 24 hours
# Chain of KRAS G12V (P01116-2 other isoform, or with tags, fused parts or gaps G12V): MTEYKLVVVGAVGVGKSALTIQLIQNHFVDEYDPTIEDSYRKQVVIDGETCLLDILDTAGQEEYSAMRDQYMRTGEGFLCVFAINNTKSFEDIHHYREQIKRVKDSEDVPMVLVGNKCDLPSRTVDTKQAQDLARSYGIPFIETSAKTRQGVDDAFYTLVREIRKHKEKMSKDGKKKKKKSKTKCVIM
# Method: SW620 (KRAS G12V homozygous), AsPC1 (KRAS G12D homozygous), MIA PaCa2 (KRAS G12C homozygous), A549 (KRAS G12S homozygous) and MCF7 (KRAS WT) cells were obtained from American Type Culture Collection (ATCC). […] The following day, the test compound was administered to the cells by using 1000× compound stock solution prepared in DMSO at various concentrations. After administration of the compound, the cells were then incubated at 37° C. for 24 hours. Upon completion, the cells were washed with PBS and protein was collected in Laemmli sample buffer (1×; VWR International). Proteins in cell lysate were separated by SDS-PAGE and transferred to Odyssey nitrocellulose membranes (Licor) with iblot® dry blotting transfer system (ThermoFisher). Nonspecific binding was blocked by incubating membranes with Intercept Blocking Buffer (Licor) for 1 hour at room temperature with gentle shaking. […] After washing 3 times with TBS-T, the membranes were incubated with IRDye® 800CW goat anti-rabbit IgG (1:20,000, Licor) and IRDye® 680RD goat anti-mouse IgG (1:20,000, Licor) for 1 hour. After TBS-T washes, membranes were rinsed in TBS and Western blot images were acquired by Odyssey CLx (LI-COR Biosciences).
# The signal intensity of target proteins was calculated using ImageStudio software. KRAS fluorescent intensity (FLU) from DMSO (vehicle) treatment was set as 100%. Relative KRAS expression level was determined by the following formula: […]
# The percentage of KRAS expression was calculated using Microsoft Excel. The half-maximal degradation concentration (DCso) values were generated by GraphPad Prism (Version 9) using the dose-response equation of variable slope (four parameters).
# Chain of KRAS-G12V/RAF1 (P01116-2 other isoform, or with tags, fused parts or gaps G12V): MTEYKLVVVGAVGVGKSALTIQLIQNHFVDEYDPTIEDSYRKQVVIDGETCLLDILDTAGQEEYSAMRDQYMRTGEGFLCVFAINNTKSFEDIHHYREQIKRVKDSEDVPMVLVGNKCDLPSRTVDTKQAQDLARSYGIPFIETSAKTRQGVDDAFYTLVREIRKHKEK
SMILES,IC50 (KRAS-G12V/RAF1) [nM],DC50 (KRAS G12V) [nM]
"CCc1cccc2cc(O)cc(-c3ncc4c(N5C[C@@H]6C[C@H](C5)[C@H](O)C6)nc(OCC5(CN6CCC7(CC6)CC(CN6CCN(c8ccc9c(c8)CN([C@H]8CCC(=O)NC8=O)C9=O)CC6)C7)CC5)nc4c3F)c12 [Compound 101, (S)-3-(5-(4-((7-((1-(((7-(8-ethyl-3-hydroxynaphthalen-1-yl)-8-fluoro-4-((1R,5R,6R)-6-hydroxy-3-azabicyclo[3.2.1]octan-3-yl)pyrido[4,3-d]pyrimidin-2-yl)oxy)methyl)cyclopropyl)methyl)-7-azaspiro[3.5]nonan-2-yl)methyl)piperazin-1-yl)-1-oxoisoindolin-2-yl)piperidine-2,6-dione]",> 200,< 1
"CCc1cccc2cc(O)cc(-c3ncc4c(N5CCCn6nc(C(=O)N(C)C)c(Cl)c6C5)nc(OCC5(CN6CCC7(CC6)CC(CN6CCN(c8ccc9c(c8)CN([C@H]8CCC(=O)NC8=O)C9=O)CC6)C7)CC5)nc4c3F)c12 [Compound 102, (S)-3-chloro-5-(2-((1-((2-((4-(2-(2,6-dioxopiperidin-3-yl)-1-oxoisoindolin-5-yl)piperazin-1-yl)methyl)-7-azaspiro[3.5]nonan-7-yl)methyl)cyclopropyl)methoxy)-7-(8-ethyl-3-hydroxynaphthalen-1-yl)-8-fluoropyrido[4,3-d]pyrimidin-4-yl)-N,N-dimethyl-5,6,7,8-tetrahydro-4H-pyrazolo[1,5-a][1,4]diazepine-2-carboxamide]",> 200,< 1
"CCc1cccc2cc(O)cc(-c3ncc4c(N5CCOC[C@](C)(O)C5)nc(OCC5(CN6CCC7(CC6)CC(CN6CCN(c8ccc9c(c8)CN([C@H]8CCC(=O)NC8=O)C9=O)CC6)C7)CC5)nc4c3F)c12 [Compound 107, (S)-3-(5-(4-((7-((1-(((7-(8-ethyl-3-hydroxynaphthalen-1-yl)-8-fluoro-4-((R)-6-hydroxy-6-methyl-1,4-oxazepan-4-yl)pyrido[4,3-d]pyrimidin-2-yl)oxy)methyl)cyclopropyl)methyl)-7-azaspiro[3.5]nonan-2-yl)methyl)piperazin-1-yl)-1-oxoisoindolin-2-yl)piperidine-2.6-dione]",> 200,> 100
"C[C@@]1(O)CCCN(c2nc(OCC3(CN4CCC(CN5CCN(c6ccc7c(c6)CN([C@H]6CCC(=O)NC6=O)C7=O)CC5)CC4)CC3)nc3c(F)c(-c4cc(O)cc5ccc(F)c(F)c45)ncc23)C1 [Compound 111, (S)-3-(5-(4-((1-((1-(((7-(7,8-difluoro-3-hydroxynaphthalen-1-yl)-8-fluoro-4-((R)-3-hydroxy-3-methylpiperidin-1-yl)pyrido[4,3-d]pyrimidin-2-yl)oxy)methyl)cyclopropyl)methyl)piperidin-4-yl)methyl)piperazin-1-yl)-1-oxoisoindolin-2-yl)piperidine-2,6-dione]",20 to 200,1 to 10
"CCc1c(F)ccc2cc(O)cc(-c3ncc4c(N5CCOC[C@](C)(O)C5)nc(OCC5(CN6CCC(CN7CCN(c8ccc9c(c8)CN([C@H]8CCC(=O)NC8=O)C9=O)CC7)CC6)CC5)nc4c3F)c12 [Compound 112, (S)-3-(5-(4-((1-((1-(((7-(8-ethyl-7-fluoro-3-hydroxynaphthalen-1-yl)-8-fluoro-4-((R)-6-hydroxy-6-methyl-1,4-oxazepan-4-yl)pyrido[4,3-d]pyrimidin-2-yl)oxy)methyl)cyclopropyl)methyl)piperidin-4-yl)methyl)piperazin-1-yl)-1-oxoisoindolin-2-yl)piperidine-2,6-dione]",> 200,> 100
"CCc1c(F)ccc2cc(O)cc(-c3ncc4c(N5CCOC[C@](C)(O)C5)nc(OCC5(CN6CCC7(CC6)CC(CN6CCN(c8ccc9c(c8)CN([C@H]8CCC(=O)NC8=O)C9=O)CC6)C7)CC5)nc4c3F)c12 [Compound 113, (S)-3-(5-(4-((7-((1-(((7-(8-ethyl-7-fluoro-3-hydroxynaphthalen-1-yl)-8-fluoro-4-((R)-6-hydroxy-6-methyl-1,4-oxazepan-4-yl)pyrido[4,3-d]pyrimidin-2-yl)oxy)methyl)cyclopropyl)methyl)-7-azaspiro[3.5]nonan-2-yl)methyl)piperazin-1-yl)-1-oxoisoindolin-2-yl)piperidine-2,6-dione]",> 200,> 100
"CCc1c(F)ccc2cc(O)cc(-c3ncc4c(N5CCCC(C)(F)C5)nc(OCC5(CN6CCC7(CC6)CC(CN6CCN(c8ccc9c(c8)CN([C@H]8CCC(=O)NC8=O)C9=O)CC6)C7)CC5)nc4c3F)c12 (stereo partly drawn) [Compound 132, (3S)-3-(5-(4-((7-((1-(((7-(8-ethyl-7-fluoro-3-hydroxynaphthalen-1-yl)-8-fluoro-4-(3-fluoro-3-methylpiperidin-1-yl)pyrido[4,3-d]pyrimidin-2-yl)oxy)methyl)cyclopropyl)methyl)-7-azaspiro[3.5]nonan-2-yl)methyl)piperazin-1-yl)-1-oxoisoindolin-2-yl)piperidine-2,6-dione]",> 200,> 100
"CCc1c(F)ccc2cc(O)cc(-c3ncc4c(N5CCCOC6CC65)nc(OCC5(CN6CCC(CN7CCN(c8ccc9c(c8)CN([C@H]8CCC(=O)NC8=O)C9=O)CC7)CC6)CC5)nc4c3F)c12 (stereo partly drawn) [Compound 160, (3S)-3-(5-(4-((1-((1-(((4-(2-oxa-6-azabicyclo[5.1.0]octan-6-yl)-7-(8-ethyl-7-fluoro-3-hydroxynaphthalen-1-yl)-8-fluoropyrido[4,3-d]pyrimidin-2-yl)oxy)methyl)cyclopropyl)methyl)piperidin-4-yl)methyl)piperazin-1-yl)-1-oxoisoindolin-2-yl)piperidine-2,6-dione]",20 to 200,> 100

# Continued, values first:
IC50 (KRAS-G12V/RAF1) [nM],DC50 (KRAS G12V) [nM],SMILES
20 to 200,> 100,"CCc1c(F)ccc2cc(O)cc(-c3ncc4c(N5CCC[C@]6(C5)C[C@H](O)C6)nc(OCC5(CN6CCC7(CC6)CC(CN6CCN(c8ccc9c(c8)CN([C@H]8CCC(=O)NC8=O)C9=O)CC6)C7)CC5)nc4c3F)c12 [Compound 99, (S)-3-(5-(4-((7-((1-(((7-(8-ethyl-7-fluoro-3-hydroxynaphthalen-1-yl)-8-fluoro-4-((2s,4r)-2-hydroxy-6-azaspiro[3.5]nonan-6-yl)pyrido[4,3-d]pyrimidin-2-yl)oxy)methyl)cyclopropyl)methyl)-7-azaspiro[3.5]nonan-2-yl)methyl)piperazin-1-yl)-1-oxoisoindolin-2-yl)piperidine-2,6-dione]"
20 to 200,> 100,"CCc1c(F)ccc2cc(O)cc(-c3ncc4c(N5CCC[C@]6(C5)C[C@@H](O)C6)nc(OCC5(CN6CCC7(CC6)CC(CN6CCN(c8ccc9c(c8)CN([C@H]8CCC(=O)NC8=O)C9=O)CC6)C7)CC5)nc4c3F)c12 [Compound 100, (S)-3-(5-(4-((7-((1-(((7-(8-ethyl-7-fluoro-3-hydroxynaphthalen-1-yl)-8-fluoro-4-((2r,4s)-2-hydroxy-6-azaspiro[3.5]nonan-6-yl)pyrido[4,3-d]pyrimidin-2-yl)oxy)methyl)cyclopropyl)methyl)-7-azaspiro[3.5]nonan-2-yl)methyl)piperazin-1-yl)-1-oxoisoindolin-2-yl)piperidine-2,6-dione]"
20 to 200,< 1,"C[C@@]1(O)CCCN(c2nc(OCC3(CN4CCC5(CC4)CC(CN4CCN(c6ccc7c(c6)CN([C@H]6CCC(=O)NC6=O)C7=O)CC4)C5)CC3)nc3c(F)c(-c4cc(O)cc5ccc(F)c(F)c45)ncc23)C1 [Compound 103, (S)-3-(5-(4-((7-((1-(((7-(7,8-difluoro-3-hydroxynaphthalen-1-yl)-8-fluoro-4-((R)-3-hydroxy-3-methylpiperidin-1-yl)pyrido[4,3-d]pyrimidin-2-yl)oxy)methyl)cyclopropyl)methyl)-7-azaspiro[3.5]nonan-2-yl)methyl)piperazin-1-yl)-1-oxoisoindolin-2-yl)piperidine-2,6-dione]"
20 to 200,1 to 10,"CCc1cccc2cc(O)cc(-c3ncc4c(N5CCOC[C@@](C)(O)C5)nc(OCC5(CN6CCC7(CC6)CC(CN6CCN(c8ccc9c(c8)CN([C@H]8CCC(=O)NC8=O)C9=O)CC6)C7)CC5)nc4c3F)c12 [Compound 106, (S)-3-(5-(4-((7-((1-(((7-(8-ethyl-3-hydroxynaphthalen-1-yl)-8-fluoro-4-((S)-6-hydroxy-6-methyl-1,4-oxazepan-4-yl)pyrido[4,3-d]pyrimidin-2-yl)oxy)methyl)cyclopropyl)methyl)-7-azaspiro[3.5]nonan-2-yl)methyl)piperazin-1-yl)-1-oxoisoindolin-2-yl)piperidine-2,6-dione]"
